Laboratory results as given in patent US9421273B2, “Silicon-containing fumaric acid esters” (Biogen Idec MA Inc., priority 2011, dated 2016).
Structures can show the parent of a compound that is named as a salt.

Key:
[1] = test system: Nrf2 (ARE-luciferase reporter) in MCF7/ARE-D3 cells; assay: Nrf2 activation cell-based assay, ARE-luciferase reporter, MCF7/ARE-D3 cell line; set-up: species or system Human; details: for Maximum Nrf2 Activation Fold Change: luciferase fold change over DMSO control
Method: (§1) Human cancer cell line DLD-1 and breast cancer cell line MCF7 reporter stable cell lines were generated by transfection with a firefly luciferase reporter construct harboring the luciferase cDNA cloned downstream of eight catenated copies of the antioxidant response element (ARE: SEQ ID NO.:1).
(§2) To measure Nrf2 activation in the ARE-luciferase reporter cell lines, the cells were plated in 96-well plates at 20-50 k cells/well 24 hours prior to stimulation with the test compounds. The test compounds were prepared in dimethylsulfoxide (DMSO) and diluted with culture media to required concentrations (final DMSO concentrations <0.3%). The reporter cells were harvested 24 hours-48 hours after addition of the compounds and lysed for detection of luciferase activity. Luciferase activity in the lysates was monitored using the Bright-Glo Luciferase Assay System of Promega and Tecan Genios Pro plate reader.
(§3) Luciferase induction in the compound-treated cells was calculated as fold change over the baseline activity detected in control cultures treated with DMSO-containing media.

[2] = test system: Nrf2 (ARE-luciferase reporter) in DLD-1/ARE-E2 cells; assay: Nrf2 activation cell-based assay, ARE-luciferase reporter, DLD-1/ARE-E2 cell line; set-up: species or system Human; details: for Concentration at maximum Nrf2 activation fold change (@ [uM]) / Maximum Nrf2 Activation Fold Change: DLD-1/ARE-E2; for Maximum Nrf2 Activation Fold Change: luciferase fold change over DMSO control; for Activation of ARE-dependent signaling of the luciferase reporter construct: summary in words of Table 1 (both reporter cell lines)
Method: as §1, §2, §3

SMILES | Concentration at maximum Nrf2 activation fold change (@ [uM]) ([1]; 24 hr stimulation) | Maximum Nrf2 Activation Fold Change ([1]; 24 hr stimulation) | Concentration at maximum Nrf2 activation fold change (@ [uM]) ([1]; 48 hr stimulation) | Maximum Nrf2 Activation Fold Change ([1]; 48 hr stimulation) | Concentration at maximum Nrf2 activation fold change (@ [uM]) ([2]; 24 hr stimulation) | Maximum Nrf2 Activation Fold Change ([2]; 24 hr stimulation) | Concentration at maximum Nrf2 activation fold change (@ [uM]) ([2]; 48 hr stimulation) | Maximum Nrf2 Activation Fold Change ([2]; 48 hr stimulation) | Activation of ARE-dependent signaling of the luciferase reporter construct [2]
COC(=O)/C=C/C(=O)O[Si](C)(C)OC(=O)/C=C/C(=O)OC [Compound 11, (E)-O,O′-(dimethylsilanediyl)dimethyl difumarate] | 750 µM | 97 | 500 µM | 126 | 1000 µM | 42 | 1000 µM | 43 | able to activate ARE-dependent signaling
COC(=O)/C=C/C(=O)OC[Si](OC)(OC)OC [Compound 12, methyl ((trimethoxysilyl)methyl) fumarate] | 500 µM | 49 | 500 µM | 65 | 250 µM | 24 | 375 µM | 48 | able to activate ARE-dependent signaling
COC(=O)/C=C/C(=O)OC [DMF, dimethyl fumarate, reference compound] | 94 µM | 24 | 94 µM | 45 | 31 µM | 11 | 47 µM | 13 | –
COC(=O)/C=C/C(=O)O [MMF, monomethyl fumarate, reference compound] | 1000 µM | 56 | 1000 µM | 88 | 1000 µM | 7 | 1000 µM | 14 | –
